Experimental data from ChEMBL document CHEMBL1134202, “Selectivity of inhibition of matrix metalloproteases MMP-3 and MMP-2 by succinyl hydroxamates and their carboxylic acid analogues is dependent on P3' group chirality” (Bioorg Med Chem Lett, 2001).

Tests used:
[1] = target: Matrix metalloproteinase-9 (Homo sapiens, UniProt P14780)
[2] = target: Matrix metalloproteinase-14 (Homo sapiens, UniProt P50281)
Stromelysin-1 = Stromelysin-1 (Homo sapiens, UniProt P08254)
Sequence of Stromelysin-1 (P08254 whole entry): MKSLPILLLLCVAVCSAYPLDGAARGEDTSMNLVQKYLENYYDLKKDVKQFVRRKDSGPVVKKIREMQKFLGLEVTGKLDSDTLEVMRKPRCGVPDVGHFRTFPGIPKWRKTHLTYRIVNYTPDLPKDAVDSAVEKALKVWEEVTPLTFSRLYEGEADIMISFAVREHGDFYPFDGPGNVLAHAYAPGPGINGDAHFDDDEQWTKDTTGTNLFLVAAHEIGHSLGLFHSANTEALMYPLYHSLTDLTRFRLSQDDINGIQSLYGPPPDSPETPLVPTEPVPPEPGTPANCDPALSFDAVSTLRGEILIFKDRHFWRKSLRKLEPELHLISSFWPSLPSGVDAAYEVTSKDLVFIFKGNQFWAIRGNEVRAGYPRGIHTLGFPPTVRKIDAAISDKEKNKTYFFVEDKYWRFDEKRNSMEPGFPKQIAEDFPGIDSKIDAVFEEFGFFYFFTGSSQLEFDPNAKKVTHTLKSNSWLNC

Sequence of Matrix metalloproteinase-9 (P14780 whole entry): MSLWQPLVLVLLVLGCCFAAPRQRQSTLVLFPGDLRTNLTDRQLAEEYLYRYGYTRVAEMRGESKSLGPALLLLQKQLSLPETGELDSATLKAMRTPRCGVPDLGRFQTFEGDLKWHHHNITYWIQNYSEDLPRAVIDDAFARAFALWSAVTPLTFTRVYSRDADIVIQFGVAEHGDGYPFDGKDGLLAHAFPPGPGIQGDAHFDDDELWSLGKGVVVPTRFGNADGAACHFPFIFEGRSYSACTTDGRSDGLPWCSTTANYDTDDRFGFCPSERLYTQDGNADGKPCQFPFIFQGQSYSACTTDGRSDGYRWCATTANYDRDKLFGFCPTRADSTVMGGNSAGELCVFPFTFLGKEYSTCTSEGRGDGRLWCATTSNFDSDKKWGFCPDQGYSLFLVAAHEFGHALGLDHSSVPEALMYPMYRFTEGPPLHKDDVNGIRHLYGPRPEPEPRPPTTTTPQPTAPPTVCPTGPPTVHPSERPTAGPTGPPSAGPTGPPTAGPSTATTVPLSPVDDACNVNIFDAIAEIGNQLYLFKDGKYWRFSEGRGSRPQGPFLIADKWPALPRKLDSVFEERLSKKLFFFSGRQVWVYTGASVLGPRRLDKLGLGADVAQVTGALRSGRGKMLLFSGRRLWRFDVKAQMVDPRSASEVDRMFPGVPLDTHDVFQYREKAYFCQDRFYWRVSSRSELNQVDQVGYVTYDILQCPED

IC50 [1] | IC50 [2] | Ki (Stromelysin-1) | Structure (SMILES)
0.67 nM | 2.9 nM | – | CNC(=O)[C@H](Cc1ccccc1)NC(=O)[C@H](CC(C)C)[C@H](CSc1cccs1)C(=O)NO [BATIMASTAT]
– | – | 26 nM | CNC(=O)[C@H](Cc1c[nH]c2ccccc12)NC(=O)[C@@H](CC(=O)NO)CC(C)C [ILOMASTAT]
